# Reference: PubChem BioAssay (NCI)
#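 Five concentrations, 48 hours, 96-well plates. GI50: concentration for 50% inhibition of growth. TGI marks complete inhibition of growth.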
# Legend:
# Assay in all cases: NCI tumour cell line growth inhibition, 48 h
# KM12 colon = system: KM12 colon
# EKVX NSCLC = system: EKVX NSCLC
# SF-268 CNS = system: SF-268 CNS
# SK-OV-3 ovarian = system: SK-OV-3 ovarian
# SF-539 CNS = system: SF-539 CNS
# NCI-H460 lung = system: NCI-H460 lung
# RXF 393 renal = system: RXF 393 renal
# NCI-H23 lung = system: NCI-H23 lung
# SK-MEL-28 melanoma = system: SK-MEL-28 melanoma
# UACC-257 melanoma = system: UACC-257 melanoma
Structure (SMILES),TGI (KM12 colon) [µM],TGI (EKVX NSCLC) [µM],TGI (SF-268 CNS) [µM],TGI (SK-OV-3 ovarian) [µM],TGI (SF-539 CNS) [µM],TGI (NCI-H460 lung) [µM],TGI (RXF 393 renal) [µM],TGI (NCI-H23 lung) [µM],TGI (SK-MEL-28 melanoma) [µM],TGI (UACC-257 melanoma) [µM],GI50 (KM12 colon) [µM],GI50 (EKVX NSCLC) [µM],GI50 (SF-268 CNS) [µM],GI50 (SK-OV-3 ovarian) [µM],GI50 (SF-539 CNS) [µM],GI50 (NCI-H460 lung) [µM],GI50 (RXF 393 renal) [µM],GI50 (NCI-H23 lung) [µM],GI50 (SK-MEL-28 melanoma) [µM],GI50 (UACC-257 melanoma) [µM]
O=[N+]([O-])c1ccc(NNN=Nc2ccc(-c3nc4ccccc4[nH]3)cc2)c([N+](=O)[O-])c1,> 100,96.4,> 100,> 100,> 100,> 100,> 100,> 100,> 100,> 100,–,–,–,–,–,–,–,–,–,–
CC1=NNC(=O)C1C1CC(c2c[nH]c3ccccc23)=NN(c2ccccc2)C1=O (configuration not stated),> 100,> 100,> 100,> 100,> 100,> 100,> 100,> 100,> 100,> 100,–,–,–,–,–,–,–,–,–,–
O=C(c1cc(Cl)cc(Cl)c1)N(Cc1cccnc1)C(=S)N(Cc1cccnc1)C(=O)c1cc(Cl)cc(Cl)c1,> 100,> 100,> 100,> 100,51.4,> 100,92.7,> 100,> 100,> 100,–,–,–,–,–,–,–,–,–,–
COc1ccc2nc3cc([N+](=O)[O-])ccc3c(NNc3ccc([N+](=O)[O-])cc3)c2c1,> 100,> 100,> 100,> 100,> 100,> 59.7,> 100,> 100,> 100,16,–,–,–,–,–,–,–,–,–,–
COc1ccc(OC)c(N=Cc2cc(OC)c(OC)c(OC)c2)c1,> 100,> 100,> 100,> 100,> 100,> 100,> 100,> 100,> 100,> 100,–,–,–,–,–,–,–,–,–,–
O=c1ccn(Cc2ccccc2CCl)c(=O)[nH]1,83.3,59.6,75.8,> 100,52.7,> 100,53.5,40.1,> 100,98.8,–,–,–,–,–,–,–,–,–,–
COC(=O)CN=C1NC(=S)N(Cc2ccc(OC)cc2)C12CCCC2,> 100,> 100,> 100,> 100,> 100,> 100,> 100,> 100,> 100,> 100,–,–,–,–,–,–,–,–,–,–
CCCCCCCCCC(=O)NCCc1c[nH]c2ccc(OC)cc12,> 100,89.8,34.2,31.7,46,50.1,38,31.6,33.1,41.8,–,–,–,–,–,–,–,–,–,–
N#CC(c1ccccc1)N(CCc1ccccc1)C(=O)c1ccc(C(=O)N(CCc2ccccc2)C(C#N)c2ccccc2)cc1 (configuration not stated),> 100,> 100,55.2,> 100,42.6,37,61.3,77.6,51.3,35.3,–,–,–,–,–,–,–,–,–,–
Brc1c2c(c(Br)c3nsnc13)N=S=N2,> 100,> 74,75.4,> 79.7,57.6,> 69.3,35.9,> 69.1,> 70.7,> 100,–,–,–,–,–,–,–,–,–,–
Clc1ccc(C2CC(c3cccc(Nc4ccncc4)c3)=NN2c2ccccc2)cc1 (configuration not stated),3.28,3.12,3.84,7.33,3.09,3.65,3.08,3.7,3.24,3.83,1.7,1.58,1.87,2.57,1.7,1.91,1.67,1.92,1.77,1.8
CCCCCCc1cc2cc(C(=O)NCc3ccccc3)c(=N)oc2cc1O,> 100,> 100,> 100,> 100,> 100,> 100,> 100,> 100,> 100,> 100,–,–,–,–,–,–,–,–,–,–
Clc1cc2nc(C3CCCCO3)[nH]c2cc1Cl (configuration not stated),> 56.9,> 100,> 100,> 100,97,> 100,> 52.6,> 59.8,> 100,> 100,–,–,–,–,–,–,–,–,–,–
O=[N+]([O-])c1cnc(N(CCO)CCO)s1,> 100,> 100,> 100,> 100,> 100,> 100,> 100,> 100,> 100,> 100,–,–,–,–,–,–,–,–,–,–
C=C[C@]1(C)CC(=O)C(C(C)C=O)[C@]12C(=O)Oc1cccc(C)c1C2=O (some centres not stated),28.8,40.2,43.3,33.1,31,30.5,27.6,33.2,29.2,33.2,–,–,–,–,–,–,–,–,–,–
O=C(/C=C\c1ccsc1)c1ccccc1,8.5,27.7,21.8,30.8,24.2,25.2,18.7,15.6,24.9,34.8,–,–,–,–,–,–,–,–,–,–
O=C(O)C1CC(C2CCCCN2)CN2CCCCC12 (configuration not stated),> 100,> 100,> 100,> 100,> 100,> 100,> 100,> 100,> 100,> 100,–,–,–,–,–,–,–,–,–,–
C[C@@H](Oc1ccc(Oc2cnc3ccc(Cl)cc3n2)cc1)C(=O)O,> 100,> 100,> 100,> 100,> 100,> 100,> 100,> 100,> 100,> 100,–,–,–,–,> 87.9,–,> 30.5,–,–,–

Structure (SMILES),TGI (KM12 colon) [µM],TGI (EKVX NSCLC) [µM],TGI (SF-268 CNS) [µM],TGI (SK-OV-3 ovarian) [µM],TGI (SF-539 CNS) [µM],TGI (NCI-H460 lung) [µM],TGI (RXF 393 renal) [µM],TGI (NCI-H23 lung) [µM],TGI (SK-MEL-28 melanoma) [µM],TGI (UACC-257 melanoma) [µM],GI50 (KM12 colon) [µM],GI50 (EKVX NSCLC) [µM],GI50 (SF-268 CNS) [µM],GI50 (SK-OV-3 ovarian) [µM],GI50 (SF-539 CNS) [µM],GI50 (NCI-H460 lung) [µM],GI50 (RXF 393 renal) [µM],GI50 (NCI-H23 lung) [µM],GI50 (SK-MEL-28 melanoma) [µM],GI50 (UACC-257 melanoma) [µM]
CC(C)C1CC(CO)(CNc2nc(N)nc(Cl)c2/C=N\O)C1 (configuration not stated),18.3,11.7,> 79.5,30.2,49.3,3.14,55.1,24.3,26.1,11.8,–,–,–,–,–,–,–,–,–,–
COC(=O)[C@H](C)NC(=O)C1(CNC(=O)[C@H](C)NC(=O)OC(C)(C)C)Cc2ccccc2-c2ccccc2C1,40.2,47,52.5,> 100,> 58.1,42.9,> 88.9,37.8,> 70.6,> 78.9,–,–,–,–,–,–,–,–,–,–
CCOC(=O)NC(Nc1ccc(S(=O)(=O)Nc2ccc(OC)nn2)cc1)(C(F)(F)F)C(F)(F)F,> 100,> 100,> 100,> 100,36.5,> 100,34.8,96.4,55.6,98.6,–,–,–,–,–,–,–,–,–,–
Cc1nn(C(=O)c2ccc(Cl)cc2)c2c1C(c1ccccc1O)SC(N)=N2 (configuration not stated),> 10,> 10,> 10,> 10,> 10,> 10,> 10,> 10,> 10,> 10,–,–,–,–,–,–,–,–,–,–
COc1ccc2nc3c(C)cc4ccccc4n3c2c1,> 100,> 100,> 100,> 100,> 100,> 100,> 100,> 100,> 100,> 100,–,–,–,–,–,–,–,–,–,–
Cc1ccc(S(=O)(=O)NN=C2C(C)(C)CC2(C)C)cc1,> 100,> 100,> 100,> 100,> 100,> 100,> 100,> 100,> 100,> 100,–,–,–,–,–,–,–,–,–,–
CC1OC(OC2C(OC(=O)[C@]34CCC(C)(C)CC3C3=CCC5[C@@]6(C)C[C@H](O)[C@H](OC7OC(COC8OC(CO)C(O)C(O)C8O)C(O)C(O)C7O)[C@@](C)(C(=O)O)C6CC[C@@]5(C)C3(C)CC4)OCC(O)C2O)C(O)C(O)C1OC1OCC(O)C(O)C1O (some centres not stated),> 100,> 100,> 100,> 100,> 100,> 100,> 100,> 100,> 100,> 100,–,–,–,–,–,–,–,–,–,–
O=C1C(Cl)=C(N2CCN(CCOCCO)CC2)C(=O)c2ccccc21,31.6,32.3,30.3,28.9,33.1,32.8,8.91,28,32.1,15.7,–,–,–,–,–,–,–,–,–,–
O=[N+]([O-])c1ccc(Cc2nc3cc4ccccc4cc3[nH]2)cc1C(F)(F)F,30.3,> 100,39,31,39.1,38.5,32.1,25.7,> 100,29.5,–,–,–,–,–,–,–,–,–,–
CC(=O)Nc1c2sscc-2n(C)c1=O,2.6,3.68,3.09,2.84,3.52,1.32,3.18,2.28,2.69,2.97,–,–,–,–,–,–,–,–,–,–
CCOC(=O)c1cc(C2=CCNC2=O)c(-c2cc(C)no2)[nH]1,> 100,> 100,> 100,> 100,> 100,> 100,> 100,> 100,> 100,> 100,–,–,–,–,–,–,–,–,–,–
C/C(=N\Nc1nc2ccccc2o1)c1ncccn1,30.2,14.1,> 72.2,10,1.03,14,5.59,5.87,28.6,15.6,–,–,–,–,–,–,–,–,–,–
O=C(NNC(=S)Nc1ccc(Cl)cc1)C12CC3CC(CC(C3)C1)C2,> 51.6,55,32,64.7,14.3,24.5,48.6,54.7,60.8,> 57.3,–,–,–,–,–,–,–,–,–,–
O=C1C=CC(=O)c2c(O)c(NCCO)c(Cl)c(O)c21,> 10,> 10,> 10,> 10,5.73,8.68,3.46,5.59,3.65,2.78,–,–,–,–,–,–,–,–,–,–
CC(C)(C)CNCCCNc1ccc(Cl)cc1,> 100,> 100,> 100,> 100,> 100,> 100,74.3,> 100,44.3,58.1,–,–,–,–,–,–,–,–,–,–
O=C(CCc1ccc(O)c(O)c1)NCCc1ccccc1,> 100,> 100,> 100,> 100,> 89.9,> 100,> 100,> 100,> 100,> 100,–,–,–,–,–,–,–,–,–,–
Cc1c2oc3c(C)cnc(C(=O)NC4C(=O)NC(C(C)C)C(=O)N5CCCC5C(=O)N(C)CC(=O)N(C)C(C(C)C)C(=O)OC4C)c3nc-2c(C(=O)NC2C(=O)NC(C(C)C)C(=O)N3CCCC3C(=O)N(C)CC(=O)N(C)C(C(C)C)C(=O)OC2C)c(N)c1=O (configuration not stated),61.1,> 75,24.4,61.5,17.7,> 24.6,18.8,> 54.8,30.3,33.8,–,–,–,–,–,–,–,–,–,–
O=C(CC(Cc1ccccc1)c1ccc(Oc2ccccc2)cc1)Nc1cccc(Cl)c1 (configuration not stated),> 100,> 100,> 100,> 100,> 100,> 100,62.8,> 100,> 100,76.2,–,–,–,–,–,–,–,–,–,–
